Assay results as given in article PMC12670405, “Second-Generation AURKA-Targeting PROTACs: Structural Optimization toward in Vivo Degradation in Neuroblastoma” (Journal of Medicinal Chemistry, 2025).

Legend:
Test in all cases: KINOMEscan scanMAX
Assay type in all cases: binding
Details in all cases: read-out: Percent Control
LRRK2(G2019S) = target: T1, LRRK2(G2019S) (Homo sapiens, UniProt Q5S007, G2019S)
T1 construct: purchased Eurofins Discovery (DiscoverX KINOMEscan scanMAX)
Method: (§1) The kinome-wide binding assay was performed by Eurofins Discovery using the scanMAX screening platform. More information can be found on the Eurofins Discovery Web site.

TRKB = target: T2, TRKB (Homo sapiens, UniProt Q16620)
T2 construct: purchased Eurofins Discovery (DiscoverX KINOMEscan scanMAX)
Method: as §1

ERK5 = target: T3, ERK5 (Homo sapiens, UniProt Q13164)
T3 construct: purchased Eurofins Discovery (DiscoverX KINOMEscan scanMAX)
Method: as §1

AURKB = target: T4, AURKB (Homo sapiens, UniProt Q96GD4)
T4 construct: purchased Eurofins Discovery
Method: as §1

EPHB1 = target: T5, EPHB1 (Homo sapiens, UniProt P54762)
T5 construct: purchased Eurofins Discovery (DiscoverX KINOMEscan scanMAX)
Method: as §1

MKNK1 = target: T6, MKNK1 (Homo sapiens, UniProt Q9BUB5)
T6 construct: purchased Eurofins Discovery (DiscoverX KINOMEscan scanMAX)
Method: as §1

VRK2 = target: T7, VRK2 (Homo sapiens, UniProt Q86Y07)
T7 construct: purchased Eurofins Discovery (DiscoverX KINOMEscan scanMAX)
Method: as §1

DMPK = target: T8, DMPK (Homo sapiens, UniProt Q09013)
T8 construct: purchased Eurofins Discovery (DiscoverX KINOMEscan scanMAX)
Method: as §1

CAMKK2 = target: T9, CAMKK2 (Homo sapiens, UniProt Q96RR4)
T9 construct: purchased Eurofins Discovery (DiscoverX KINOMEscan scanMAX)
Method: as §1

[1] = target: T10, RSK1(Kin.Dom.1-N-terminal) (Homo sapiens, UniProt Q15418)
T10 construct: RSK1(Kin.Dom.1-N-terminal); purchased Eurofins Discovery (DiscoverX KINOMEscan scanMAX)
Method: as §1

DRAK2 = target: T11, DRAK2 (Homo sapiens, UniProt O94768)
T11 construct: purchased Eurofins Discovery (DiscoverX KINOMEscan scanMAX)
T11 sequence (O94768 whole entry): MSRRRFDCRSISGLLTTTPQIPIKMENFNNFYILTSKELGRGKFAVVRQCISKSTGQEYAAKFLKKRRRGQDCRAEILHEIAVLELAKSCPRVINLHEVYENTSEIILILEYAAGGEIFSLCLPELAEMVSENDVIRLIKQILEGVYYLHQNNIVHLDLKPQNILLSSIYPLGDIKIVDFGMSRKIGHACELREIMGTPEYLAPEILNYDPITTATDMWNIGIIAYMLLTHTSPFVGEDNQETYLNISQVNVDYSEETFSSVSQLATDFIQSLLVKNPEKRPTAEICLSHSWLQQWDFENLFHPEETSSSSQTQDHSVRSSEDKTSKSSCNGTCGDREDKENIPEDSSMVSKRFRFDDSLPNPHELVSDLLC
Method: as §1

ERK4 = target: T12, ERK4 (Homo sapiens, UniProt P31152)
T12 construct: purchased Eurofins Discovery (DiscoverX KINOMEscan scanMAX)
Method: as §1

PLK4 = target: T13, PLK4 (Homo sapiens, UniProt O00444)
T13 construct: purchased Eurofins Discovery (DiscoverX KINOMEscan scanMAX)
T13 sequence (O00444 whole entry): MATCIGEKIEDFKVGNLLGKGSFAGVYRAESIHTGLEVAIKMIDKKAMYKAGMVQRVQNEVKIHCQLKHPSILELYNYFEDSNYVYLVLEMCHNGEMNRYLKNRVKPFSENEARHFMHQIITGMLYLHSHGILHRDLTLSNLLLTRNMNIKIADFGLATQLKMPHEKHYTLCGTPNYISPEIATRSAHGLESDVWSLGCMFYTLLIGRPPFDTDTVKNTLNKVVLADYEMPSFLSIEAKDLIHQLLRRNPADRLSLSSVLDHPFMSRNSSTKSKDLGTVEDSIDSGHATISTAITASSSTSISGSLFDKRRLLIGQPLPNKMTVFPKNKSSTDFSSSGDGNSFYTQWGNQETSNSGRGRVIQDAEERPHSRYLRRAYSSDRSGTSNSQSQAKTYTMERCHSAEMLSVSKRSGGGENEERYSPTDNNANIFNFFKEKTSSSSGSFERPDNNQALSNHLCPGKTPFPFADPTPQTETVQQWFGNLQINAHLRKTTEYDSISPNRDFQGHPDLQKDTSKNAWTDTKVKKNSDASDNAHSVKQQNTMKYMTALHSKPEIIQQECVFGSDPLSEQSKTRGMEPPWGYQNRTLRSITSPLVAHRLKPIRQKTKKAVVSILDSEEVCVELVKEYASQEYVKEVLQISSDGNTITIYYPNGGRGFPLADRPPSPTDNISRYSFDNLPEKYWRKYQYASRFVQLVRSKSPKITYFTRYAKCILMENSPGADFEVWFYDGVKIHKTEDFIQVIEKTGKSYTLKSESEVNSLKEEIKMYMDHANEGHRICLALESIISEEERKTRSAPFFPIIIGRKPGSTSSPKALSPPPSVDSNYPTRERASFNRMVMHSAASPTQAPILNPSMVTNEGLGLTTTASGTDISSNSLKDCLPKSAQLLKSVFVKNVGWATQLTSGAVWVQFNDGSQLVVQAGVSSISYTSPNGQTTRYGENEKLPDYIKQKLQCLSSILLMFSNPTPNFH
Method: as §1

EPHA4 = target: T14, EPHA4 (Homo sapiens, UniProt P54764)
T14 construct: purchased Eurofins Discovery (DiscoverX KINOMEscan scanMAX)
Method: as §1

TAOK3 = target: T15, TAOK3 (Homo sapiens, UniProt Q9H2K8)
T15 construct: purchased Eurofins Discovery (DiscoverX KINOMEscan scanMAX)
Method: as §1

ERK2 = target: T16, ERK2 (Homo sapiens, UniProt P28482)
T16 construct: purchased Eurofins Discovery (DiscoverX KINOMEscan scanMAX)
Method: as §1

PAK6 = target: T17, PAK6 (Homo sapiens, UniProt Q9NQU5)
T17 construct: purchased Eurofins Discovery (DiscoverX KINOMEscan scanMAX)
T17 sequence (Q9NQU5 whole entry): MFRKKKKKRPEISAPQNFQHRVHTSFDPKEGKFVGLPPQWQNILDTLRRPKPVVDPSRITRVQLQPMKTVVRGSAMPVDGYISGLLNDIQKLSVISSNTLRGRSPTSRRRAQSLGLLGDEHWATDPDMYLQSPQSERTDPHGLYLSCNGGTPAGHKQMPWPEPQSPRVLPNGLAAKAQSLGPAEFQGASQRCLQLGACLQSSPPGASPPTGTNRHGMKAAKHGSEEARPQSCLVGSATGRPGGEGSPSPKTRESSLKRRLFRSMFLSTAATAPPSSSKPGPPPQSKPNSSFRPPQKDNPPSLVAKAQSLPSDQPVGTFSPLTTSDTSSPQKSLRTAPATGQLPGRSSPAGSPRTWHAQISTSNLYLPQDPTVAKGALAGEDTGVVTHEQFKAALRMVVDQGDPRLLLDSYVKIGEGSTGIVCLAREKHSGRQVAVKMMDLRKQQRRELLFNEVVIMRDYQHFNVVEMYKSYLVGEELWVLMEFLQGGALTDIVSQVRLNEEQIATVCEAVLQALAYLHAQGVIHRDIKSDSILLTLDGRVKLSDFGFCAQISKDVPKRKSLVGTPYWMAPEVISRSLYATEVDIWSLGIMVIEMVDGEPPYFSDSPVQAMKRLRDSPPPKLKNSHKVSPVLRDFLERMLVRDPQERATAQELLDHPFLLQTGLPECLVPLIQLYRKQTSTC
Method: as §1

CDK4 = target: T18, CDK4 (Homo sapiens, UniProt P11802)
T18 construct: purchased Eurofins Discovery (DiscoverX KINOMEscan scanMAX)
Method: as §1

CDC2L5 = target: T19, CDC2L5 (Homo sapiens, UniProt Q14004)
T19 construct: purchased Eurofins Discovery (DiscoverX KINOMEscan scanMAX)
Method: as §1

ACVR2B = target: T20, ACVR2B (Homo sapiens, UniProt Q13705)
T20 construct: purchased Eurofins Discovery (DiscoverX KINOMEscan scanMAX)
Method: as §1

PRKCI = target: T21, PRKCI (Homo sapiens, UniProt P41743)
T21 construct: purchased Eurofins Discovery (DiscoverX KINOMEscan scanMAX)
Method: as §1

[2] = target: T22, TYK2(JH2domain-pseudokinase) (Homo sapiens, UniProt P29597)
T22 construct: TYK2(JH2domain-pseudokinase); purchased Eurofins Discovery (DiscoverX KINOMEscan scanMAX)
T22 sequence (P29597 556-888 limits assumed): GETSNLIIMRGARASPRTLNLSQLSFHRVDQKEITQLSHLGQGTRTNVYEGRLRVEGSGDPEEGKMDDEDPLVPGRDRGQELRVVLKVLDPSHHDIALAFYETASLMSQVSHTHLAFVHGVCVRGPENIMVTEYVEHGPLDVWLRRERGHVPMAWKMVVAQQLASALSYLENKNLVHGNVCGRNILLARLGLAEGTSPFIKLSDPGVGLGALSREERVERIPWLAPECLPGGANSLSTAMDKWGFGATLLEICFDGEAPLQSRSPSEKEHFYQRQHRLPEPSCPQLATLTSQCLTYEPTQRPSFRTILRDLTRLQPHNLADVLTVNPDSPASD
Method: as §1

INSR = target: T23, INSR (Homo sapiens, UniProt P06213)
T23 construct: purchased Eurofins Discovery (DiscoverX KINOMEscan scanMAX)
Method: as §1

WNK1 = target: T24, WNK1 (Homo sapiens, UniProt Q9H4A3)
T24 construct: purchased Eurofins Discovery (DiscoverX KINOMEscan scanMAX)
Method: as §1

PFTAIRE2 = target: T25, PFTAIRE2 (Homo sapiens, UniProt Q96Q40)
T25 construct: purchased Eurofins Discovery (DiscoverX KINOMEscan scanMAX)
T25 sequence (Q96Q40 whole entry): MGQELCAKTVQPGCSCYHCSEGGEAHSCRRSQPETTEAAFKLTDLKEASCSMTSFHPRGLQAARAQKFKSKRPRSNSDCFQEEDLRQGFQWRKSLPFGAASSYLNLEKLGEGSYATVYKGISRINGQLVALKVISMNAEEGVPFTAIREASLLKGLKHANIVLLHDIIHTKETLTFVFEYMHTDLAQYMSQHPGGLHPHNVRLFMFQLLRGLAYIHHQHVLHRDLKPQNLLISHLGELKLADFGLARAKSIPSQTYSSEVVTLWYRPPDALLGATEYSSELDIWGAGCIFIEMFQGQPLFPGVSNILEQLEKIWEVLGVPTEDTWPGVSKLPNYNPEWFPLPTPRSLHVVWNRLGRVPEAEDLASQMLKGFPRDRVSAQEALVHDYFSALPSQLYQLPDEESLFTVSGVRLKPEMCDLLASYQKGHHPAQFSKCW
Method: as §1

TAOK1 = target: T26, TAOK1 (Homo sapiens, UniProt Q7L7X3)
T26 construct: purchased Eurofins Discovery (DiscoverX KINOMEscan scanMAX)
Method: as §1

CAMK1 = target: T27, CAMK1 (Homo sapiens, UniProt Q14012)
T27 construct: purchased Eurofins Discovery (DiscoverX KINOMEscan scanMAX)
Method: as §1

MAPKAPK2 = target: T28, MAPKAPK2 (Homo sapiens, UniProt P49137)
T28 construct: purchased Eurofins Discovery (DiscoverX KINOMEscan scanMAX)
Method: as §1

RIPK4 = target: T29, RIPK4 (Homo sapiens, UniProt P57078)
T29 construct: purchased Eurofins Discovery (DiscoverX KINOMEscan scanMAX)
Method: as §1

TLK1 = target: T30, TLK1 (Homo sapiens, UniProt Q9UKI8)
T30 construct: purchased Eurofins Discovery (DiscoverX KINOMEscan scanMAX)
Method: as §1

KIT(A829P) = target: T31, KIT(A829P) (Homo sapiens, UniProt P10721, A829P)
T31 construct: purchased Eurofins Discovery (DiscoverX KINOMEscan scanMAX)
Method: as §1

DAPK2 = target: T32, DAPK2 (Homo sapiens, UniProt Q9UIK4)
T32 construct: purchased Eurofins Discovery (DiscoverX KINOMEscan scanMAX)
T32 sequence (Q9UIK4 whole entry): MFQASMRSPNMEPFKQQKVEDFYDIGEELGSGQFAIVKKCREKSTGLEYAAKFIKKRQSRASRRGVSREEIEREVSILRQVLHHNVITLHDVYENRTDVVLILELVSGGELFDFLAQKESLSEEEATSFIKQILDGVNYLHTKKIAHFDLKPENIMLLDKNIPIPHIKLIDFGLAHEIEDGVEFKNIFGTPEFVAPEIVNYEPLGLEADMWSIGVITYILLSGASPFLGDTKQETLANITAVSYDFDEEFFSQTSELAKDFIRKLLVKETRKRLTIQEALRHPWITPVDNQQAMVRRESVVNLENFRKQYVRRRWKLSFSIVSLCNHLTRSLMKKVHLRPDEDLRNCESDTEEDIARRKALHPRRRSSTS
Method: as §1

MRCKA = target: T33, MRCKA (Homo sapiens, UniProt Q5VT25)
T33 construct: purchased Eurofins Discovery (DiscoverX KINOMEscan scanMAX)
T33 sequence (Q5VT25 whole entry): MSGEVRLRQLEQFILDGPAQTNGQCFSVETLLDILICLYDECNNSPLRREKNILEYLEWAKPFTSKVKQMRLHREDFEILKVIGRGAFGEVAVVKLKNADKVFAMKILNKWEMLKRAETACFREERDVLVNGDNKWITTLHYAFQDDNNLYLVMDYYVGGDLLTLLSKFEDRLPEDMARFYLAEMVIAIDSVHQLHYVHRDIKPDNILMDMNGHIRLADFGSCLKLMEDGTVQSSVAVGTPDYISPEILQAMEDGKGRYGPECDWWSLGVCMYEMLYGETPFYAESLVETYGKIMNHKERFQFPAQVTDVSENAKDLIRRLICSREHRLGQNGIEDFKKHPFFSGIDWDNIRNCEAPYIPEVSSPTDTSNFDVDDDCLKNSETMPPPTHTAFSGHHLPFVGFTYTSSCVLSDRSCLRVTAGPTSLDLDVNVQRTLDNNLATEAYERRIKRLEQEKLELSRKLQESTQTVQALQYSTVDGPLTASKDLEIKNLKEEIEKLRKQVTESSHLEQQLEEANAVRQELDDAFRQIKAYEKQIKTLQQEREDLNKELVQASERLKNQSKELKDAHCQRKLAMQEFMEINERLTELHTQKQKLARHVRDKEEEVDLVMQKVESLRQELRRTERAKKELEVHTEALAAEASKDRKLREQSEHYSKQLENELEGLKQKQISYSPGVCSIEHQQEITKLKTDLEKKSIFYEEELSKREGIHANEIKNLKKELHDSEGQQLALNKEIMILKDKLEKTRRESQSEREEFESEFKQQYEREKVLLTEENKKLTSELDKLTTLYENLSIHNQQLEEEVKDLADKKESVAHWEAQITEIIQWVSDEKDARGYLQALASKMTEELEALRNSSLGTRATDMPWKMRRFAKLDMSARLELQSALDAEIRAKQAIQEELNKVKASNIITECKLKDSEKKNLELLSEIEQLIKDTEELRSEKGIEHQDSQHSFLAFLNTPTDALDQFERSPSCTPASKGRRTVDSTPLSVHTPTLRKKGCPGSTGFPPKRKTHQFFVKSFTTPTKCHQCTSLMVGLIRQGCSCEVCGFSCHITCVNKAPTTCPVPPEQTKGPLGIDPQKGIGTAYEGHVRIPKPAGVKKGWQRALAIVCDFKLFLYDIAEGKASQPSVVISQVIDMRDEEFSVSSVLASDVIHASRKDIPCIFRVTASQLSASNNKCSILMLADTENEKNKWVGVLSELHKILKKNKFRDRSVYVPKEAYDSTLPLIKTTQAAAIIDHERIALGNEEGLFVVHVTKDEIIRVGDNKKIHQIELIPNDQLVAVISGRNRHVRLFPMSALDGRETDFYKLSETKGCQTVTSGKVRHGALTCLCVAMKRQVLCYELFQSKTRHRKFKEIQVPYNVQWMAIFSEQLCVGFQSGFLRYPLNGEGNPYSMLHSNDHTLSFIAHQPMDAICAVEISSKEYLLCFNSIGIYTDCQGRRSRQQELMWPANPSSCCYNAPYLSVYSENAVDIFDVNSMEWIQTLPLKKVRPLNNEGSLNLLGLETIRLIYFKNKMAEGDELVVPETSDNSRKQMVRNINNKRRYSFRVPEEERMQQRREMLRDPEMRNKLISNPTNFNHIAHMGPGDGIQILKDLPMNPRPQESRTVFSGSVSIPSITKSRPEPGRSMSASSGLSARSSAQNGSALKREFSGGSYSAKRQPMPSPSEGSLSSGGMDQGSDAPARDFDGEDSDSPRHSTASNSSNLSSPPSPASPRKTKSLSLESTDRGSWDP
Method: as §1

Q: Which results are given for `Cc1cc(Nc2ccc(F)c(CC3(C(=O)N4CCC(F)(CN5CCN(c6ccc(N7CCC(=O)NC7=O)cn6)CC5)CC4)CCN(Cc4cccc(Cl)c4F)CC3)n2)n[nH]1` [SK5527]?
A: remaining binding at 0.1 µM (LRRK2(G2019S); 100 nM): 73%; remaining binding at 1 µM (LRRK2(G2019S); 1000 nM): 67%; remaining binding at 0.1 µM (TRKB; 100 nM): 95%; remaining binding at 1 µM (TRKB; 1000 nM): 47%; remaining binding at 0.1 µM (ERK5; 100 nM): 100%; remaining binding at 1 µM (ERK5; 1000 nM): 93%; remaining binding at 0.1 µM (AURKB; 100 nM): 100%; remaining binding at 1 µM (AURKB; 1000 nM): 53%; remaining binding at 0.1 µM (EPHB1; 100 nM): 96%; remaining binding at 1 µM (EPHB1; 1000 nM): 79%; remaining binding at 0.1 µM (MKNK1; 100 nM): 84%; remaining binding at 1 µM (MKNK1; 1000 nM): 92%; remaining binding at 0.1 µM (VRK2; 100 nM): 82%; remaining binding at 1 µM (VRK2; 1000 nM): 77%; remaining binding at 0.1 µM (DMPK; 100 nM): 88%; remaining binding at 1 µM (DMPK; 1000 nM): 90%; remaining binding at 0.1 µM (CAMKK2; 100 nM): 100%; remaining binding at 1 µM (CAMKK2; 1000 nM): 100%; remaining binding at 0.1 µM ([1]; 100 nM): 100%; remaining binding at 1 µM ([1]; 1000 nM): 100%; remaining binding at 0.1 µM (DRAK2; 100 nM): 100%; remaining binding at 1 µM (DRAK2; 1000 nM): 100%; remaining binding at 0.1 µM (ERK4; 100 nM): 97%; remaining binding at 1 µM (ERK4; 1000 nM): 98%; remaining binding at 0.1 µM (PLK4; 100 nM): 76%; remaining binding at 1 µM (PLK4; 1000 nM): 29%; remaining binding at 0.1 µM (EPHA4; 100 nM): 91%; remaining binding at 1 µM (EPHA4; 1000 nM): 100%; remaining binding at 0.1 µM (TAOK3; 100 nM): 100%; remaining binding at 1 µM (TAOK3; 1000 nM): 100%; remaining binding at 0.1 µM (ERK2; 100 nM): 100%; remaining binding at 1 µM (ERK2; 1000 nM): 97%; remaining binding at 0.1 µM (PAK6; 100 nM): 100%; remaining binding at 1 µM (PAK6; 1000 nM): 100%; remaining binding at 0.1 µM (CDK4; 100 nM): 72%; remaining binding at 1 µM (CDK4; 1000 nM): 90%; remaining binding at 0.1 µM (CDC2L5; 100 nM): 82%; remaining binding at 1 µM (CDC2L5; 1000 nM): 73%; remaining binding at 0.1 µM (ACVR2B; 100 nM): 100%; remaining binding at 1 µM (ACVR2B; 1000 nM): 87%; remaining binding at 0.1 µM (PRKCI; 100 nM): 92%; remaining binding at 1 µM (PRKCI; 1000 nM): 76%; remaining binding at 0.1 µM ([2]; 100 nM): 51%; remaining binding at 1 µM ([2]; 1000 nM): 51%; remaining binding at 0.1 µM (INSR; 100 nM): 85%; remaining binding at 1 µM (INSR; 1000 nM): 85%; remaining binding at 0.1 µM (WNK1; 100 nM): 73%; remaining binding at 1 µM (WNK1; 1000 nM): 77%; remaining binding at 0.1 µM (PFTAIRE2; 100 nM): 75%; remaining binding at 1 µM (PFTAIRE2; 1000 nM): 80%; remaining binding at 0.1 µM (TAOK1; 100 nM): 79%; remaining binding at 1 µM (TAOK1; 1000 nM): 88%; remaining binding at 0.1 µM (CAMK1; 100 nM): 100%; remaining binding at 1 µM (CAMK1; 1000 nM): 98%; remaining binding at 0.1 µM (MAPKAPK2; 100 nM): 84%; remaining binding at 1 µM (MAPKAPK2; 1000 nM): 100%; remaining binding at 0.1 µM (RIPK4; 100 nM): 67%; remaining binding at 1 µM (RIPK4; 1000 nM): 46%; remaining binding at 0.1 µM (TLK1; 100 nM): 88%; remaining binding at 1 µM (TLK1; 1000 nM): 74%; remaining binding at 0.1 µM (KIT(A829P); 100 nM): 100%; remaining binding at 1 µM (KIT(A829P); 1000 nM): 95%; remaining binding at 0.1 µM (DAPK2; 100 nM): 100%; remaining binding at 1 µM (DAPK2; 1000 nM): 93%; remaining binding at 0.1 µM (MRCKA; 100 nM): 100%; remaining binding at 1 µM (MRCKA; 1000 nM): 93%
